Experiments:
Type in all cases: cell-based
Toll-like receptor 7 [1] = biological target: T1, Toll-like receptor 7 (Homo sapiens, UniProt Q9NYK1); experiment: Agonist activity at TLR7 in cryopreserved human PBMC assessed as IFN-alpha production after 24 hrs by MSD assay
T1 sequence (Q9NYK1 whole entry): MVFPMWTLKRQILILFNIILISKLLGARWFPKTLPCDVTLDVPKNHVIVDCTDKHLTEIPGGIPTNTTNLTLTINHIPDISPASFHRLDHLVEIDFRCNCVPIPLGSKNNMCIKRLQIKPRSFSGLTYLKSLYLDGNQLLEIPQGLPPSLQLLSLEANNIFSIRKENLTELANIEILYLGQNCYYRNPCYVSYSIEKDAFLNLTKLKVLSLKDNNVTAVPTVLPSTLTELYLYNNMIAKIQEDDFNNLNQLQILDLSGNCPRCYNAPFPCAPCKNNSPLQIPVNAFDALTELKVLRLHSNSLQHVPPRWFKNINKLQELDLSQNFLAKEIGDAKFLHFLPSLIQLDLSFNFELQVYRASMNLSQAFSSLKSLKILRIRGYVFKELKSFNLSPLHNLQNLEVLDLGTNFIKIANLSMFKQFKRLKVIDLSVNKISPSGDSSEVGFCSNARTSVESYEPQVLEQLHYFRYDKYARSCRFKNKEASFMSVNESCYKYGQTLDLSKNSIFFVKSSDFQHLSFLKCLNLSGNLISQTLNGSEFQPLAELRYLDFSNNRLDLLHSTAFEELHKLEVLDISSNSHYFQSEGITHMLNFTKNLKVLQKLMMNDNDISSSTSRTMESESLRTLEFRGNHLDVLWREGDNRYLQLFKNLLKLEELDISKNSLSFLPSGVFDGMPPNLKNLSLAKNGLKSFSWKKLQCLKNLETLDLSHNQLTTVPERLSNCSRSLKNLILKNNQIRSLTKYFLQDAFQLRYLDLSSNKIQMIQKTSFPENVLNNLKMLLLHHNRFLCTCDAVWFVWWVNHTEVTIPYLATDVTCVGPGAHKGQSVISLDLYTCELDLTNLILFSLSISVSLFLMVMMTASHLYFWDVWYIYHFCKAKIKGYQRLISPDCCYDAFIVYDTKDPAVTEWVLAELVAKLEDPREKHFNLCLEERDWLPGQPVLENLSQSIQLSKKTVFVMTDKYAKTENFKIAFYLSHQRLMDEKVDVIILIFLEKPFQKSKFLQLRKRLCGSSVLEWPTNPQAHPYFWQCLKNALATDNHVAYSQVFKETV

Toll-like receptor 7 [2] = biological target: T1, Toll-like receptor 7; experiment: Agonist activity at TLR7 in human PBMC assessed as IFN-alpha production after 24 hrs by electrochemiluminescence assay
Toll-like receptor 7 [3] = biological target: T1, Toll-like receptor 7; experiment: Agonist activity at TLR7 in human PBMC assessed as TNF-alpha production after 24 hrs by electrochemiluminescence assay

| SMILES | EC50 (Toll-like receptor 7 [1]) | EC50 (Toll-like receptor 7 [2]) | EC50 (Toll-like receptor 7 [3]) |
| --- | --- | --- | --- |
| CCCCOc1nc(N)c2nc(O)n(Cc3ccccc3)c2n1 | 0.126 µM |  |  |
| CCCCOc1nc(N)c2nc(O)n(CCCN3CCCCC3)c2n1 | 0.316 µM |  |  |
| CC(C)Oc1nc(N)c2[nH]c(=O)n(CCCCCN3CCCCC3)c2n1 |  | 0.001 µM | 12.6 µM |
| CCCCOc1nc(N)c2[nH]c(=O)n(CCCCN3CCCCCC3)c2n1 |  | 0.00158 µM | 6.31 µM |
| CCCCOc1nc(N)c2[nH]c(=O)n(CCN3CCCCC3)c2n1 | 2.51 µM |  |  |
| CCCC[C@H](C)Oc1nc(N)c2[nH]c(=O)n(CCCCN3CCCCC3)c2n1 |  | 0.000631 µM | 2.51 µM |
| CCCCOc1nc(N)c2[nH]c(=O)n(CCCCCN3CCCCC3)c2n1 |  | 0.00794 µM | 5.01 µM |
| CCCCOc1nc(N)c2[nH]c(=O)n(CCCCN3CCCCC3)c2n1 |  | 0.00631 µM | 6.31 µM |
| CC[C@H](C)Oc1nc(N)c2[nH]c(=O)n(CCCCCN3CCCCC3)c2n1 |  | 0.000501 µM | 10 µM |
| CCCCOc1nc(N)c2[nH]c(=O)n(CCCCC3CCN(C(C)C)CC3)c2n1 |  | 0.000794 µM | 6.31 µM |
| CCCCOc1nc(N)c2[nH]c(=O)n(CCCCCCN3CCCCC3)c2n1 |  | 0.00158 µM | 2 µM |
| CCC[C@H](C)Oc1nc(N)c2[nH]c(=O)n(CCCCN3CCCCC3)c2n1 |  | 0.000794 µM | 2.51 µM |
| CCCCOc1nc(N)c2[nH]c(=O)n(CCCCC3CCCNC3)c2n1 (stereo not given) |  | 0.00251 µM | 1 µM |
| Nc1nc(OC2CCCC2)nc2c1[nH]c(=O)n2CCCCN1CCCCC1 |  | 1 µM | 12.6 µM |
| CCCCOc1nc(N)c2[nH]c(=O)n(CCCCN3CCN(C(C)C)CC3)c2n1 |  | 0.00251 µM | 6.31 µM |
| CCCCOc1nc(N)c2[nH]c(=O)n(CCCCN3CCCC3)c2n1 |  | 0.02 µM | 15.8 µM |

Further lines, results first:

| EC50 (Toll-like receptor 7 [1]) | EC50 (Toll-like receptor 7 [2]) | EC50 (Toll-like receptor 7 [3]) | SMILES |
| --- | --- | --- | --- |
|  | 0.000631 µM | 0.631 µM | CCCCOc1nc(N)c2[nH]c(=O)n(CCCCC3CCNCC3)c2n1 |
| 0.316 µM |  |  | CCCCOc1nc(N)c2[nH]c(=O)n(CCCCC3CCCCO3)c2n1 (stereo not given) |
| 0.2 µM |  |  | CCCCOc1nc(N)c2[nH]c(=O)n(CC3CCOCC3)c2n1 |
| 0.0398 µM |  |  | CCCCOc1nc(N)c2[nH]c(=O)n(CCCCC3CCCOC3)c2n1 (stereo not given) |
| 0.2 µM |  |  | CCCCOc1nc(N)c2[nH]c(=O)n(CCC3CCOCC3)c2n1 |
|  | 0.2 µM | 3.98 µM | CCCCOc1nc(N)c2[nH]c(=O)n(CCCCN3CCOCC3)c2n1 |
| 0.794 µM |  |  | CCCCOc1nc(N)c2[nH]c(=O)n(CCCCCCC3CCOCC3)c2n1 |
| 0.0631 µM |  |  | CCCCOc1nc(N)c2[nH]c(=O)n(CCCC3CCOCC3)c2n1 |
| 0.1 µM |  |  | CCCCOc1nc(N)c2[nH]c(=O)n(CCCCC3CCOCC3)c2n1 |
|  | 0.0398 µM | 0.126 µM | CCC[C@H](C)Oc1nc(N)c2[nH]c(=O)n(CCCCC3CCOCC3)c2n1 |
| 0.0631 µM |  |  | CCCCOc1nc(N)c2[nH]c(=O)n(CCCCC3CCOC3)c2n1 (stereo not given) |
| 0.0501 µM |  |  | CCCCOc1nc(N)c2[nH]c(=O)n(CCCCCC3CCOCC3)c2n1 |
| 0.158 µM |  |  | CCCCOc1nc(N)c2[nH]c(=O)n(CCCCC3CCCO3)c2n1 (stereo not given) |
